Measured values: the kinase profiling compilation of Christmann-Franck et al. (2016)
Blank lines part the entries; values can stand above or below the molecule they belong to.

What was measured:
Assay in all cases: KINOMEscan competition binding
Settings in all cases: compound 10.0 µM; call rule not given here
ACVRL1 (human) = ACVRL1 (human) (UniProt P37023)
ALK (human) = ALK (human) (UniProt Q9UM73)
AURKB (human) = AURKB (human) (UniProt Q96GD4)
AXL (human) = AXL (human) (UniProt P30530)
BMX (human) = BMX (human) (UniProt P51813)
BRSK2 (human) = BRSK2 (human) (UniProt Q8IWQ3)
CAMKK1 (human) = CAMKK1 (human) (UniProt Q8N5S9)
CDK16 (human) = CDK16 (human) (UniProt Q00536)
CDK2 (human) = CDK2 (human) (UniProt P24941)
CLK2 (human) = CLK2 (human) (UniProt P49760)
CSNK1A1L (human) = CSNK1A1L (human) (UniProt Q8N752)
CSNK1D (human) = CSNK1D (human) (UniProt P48730)
CSNK1E (human) = CSNK1E (human) (UniProt P49674)
CSNK1G1 (human) = CSNK1G1 (human) (UniProt Q9HCP0)
DAPK2 (human) = DAPK2 (human) (UniProt Q9UIK4)
DAPK3 (human) = DAPK3 (human) (UniProt O43293)
EPHA2 (human) = EPHA2 (human) (UniProt P29317)
EPHA3 (human) = EPHA3 (human) (UniProt P29320)
EPHA8 (human) = EPHA8 (human) (UniProt P29322)
EPHB1 (human) = EPHB1 (human) (UniProt P54762)
FLT3 (human) = FLT3 (human) (UniProt P36888)
FRK (human) = FRK (human) (UniProt P42685)
FYN (human) = FYN (human) (UniProt P06241)
KDR (human) = KDR (human) (UniProt P35968)
LCK (human) = LCK (human) (UniProt P06239)
LYN (human) = LYN (human) (UniProt P07948)
MAPK8 (human) = MAPK8 (human) (UniProt P45983)
MERTK (human) = MERTK (human) (UniProt Q12866)
MET (human) = MET (human) (UniProt P08581)
NLK (human) = NLK (human) (UniProt Q9UBE8)
PDGFRB (human) = PDGFRB (human) (UniProt P09619)
PRKAA2 (human) = PRKAA2 (human) (UniProt P54646)
RAF1 (human) = RAF1 (human) (UniProt P04049)
RET (human) = RET (human) (UniProt P07949)
SRC (human) = SRC (human) (UniProt P12931)
SRPK1 (human) = SRPK1 (human) (UniProt Q96SB4)
STK24 (human) = STK24 (human) (UniProt Q9Y6E0)
STK3 (human) = STK3 (human) (UniProt Q13188)
SYK (human) = SYK (human) (UniProt P43405)
TEK (human) = TEK (human) (UniProt Q02763)
YES1 (human) = YES1 (human) (UniProt P07947)
YES1 (human), sequence (P07947 whole entry, looked up): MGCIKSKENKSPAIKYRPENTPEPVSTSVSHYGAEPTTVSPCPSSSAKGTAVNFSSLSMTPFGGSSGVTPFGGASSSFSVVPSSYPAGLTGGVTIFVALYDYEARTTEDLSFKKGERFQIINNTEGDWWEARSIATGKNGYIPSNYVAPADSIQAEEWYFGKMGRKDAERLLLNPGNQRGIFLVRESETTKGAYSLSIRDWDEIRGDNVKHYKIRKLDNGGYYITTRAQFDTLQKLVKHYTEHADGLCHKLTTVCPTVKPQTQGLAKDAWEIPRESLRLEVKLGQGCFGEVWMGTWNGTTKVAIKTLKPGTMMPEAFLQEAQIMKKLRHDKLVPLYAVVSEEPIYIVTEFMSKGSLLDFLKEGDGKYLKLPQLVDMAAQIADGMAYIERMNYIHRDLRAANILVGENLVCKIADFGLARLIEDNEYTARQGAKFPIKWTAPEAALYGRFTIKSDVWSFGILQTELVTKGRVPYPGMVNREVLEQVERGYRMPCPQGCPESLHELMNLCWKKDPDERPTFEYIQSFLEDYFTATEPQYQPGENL

LCK (human), sequence (P06239 whole entry, looked up): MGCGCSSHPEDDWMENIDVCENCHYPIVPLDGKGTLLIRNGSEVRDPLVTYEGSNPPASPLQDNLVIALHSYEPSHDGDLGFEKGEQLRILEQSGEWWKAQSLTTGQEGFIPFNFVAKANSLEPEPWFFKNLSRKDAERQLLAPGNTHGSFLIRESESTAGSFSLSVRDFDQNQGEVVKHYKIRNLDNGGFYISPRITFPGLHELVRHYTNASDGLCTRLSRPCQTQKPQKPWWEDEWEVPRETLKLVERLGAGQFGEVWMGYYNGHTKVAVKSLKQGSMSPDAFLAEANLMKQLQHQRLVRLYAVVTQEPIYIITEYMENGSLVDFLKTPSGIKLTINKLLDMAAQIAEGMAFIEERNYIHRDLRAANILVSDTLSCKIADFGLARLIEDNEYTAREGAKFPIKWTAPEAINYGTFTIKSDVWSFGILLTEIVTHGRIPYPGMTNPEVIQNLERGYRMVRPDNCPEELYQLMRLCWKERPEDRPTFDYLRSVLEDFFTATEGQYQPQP
MET (human), sequence (P08581 whole entry, looked up): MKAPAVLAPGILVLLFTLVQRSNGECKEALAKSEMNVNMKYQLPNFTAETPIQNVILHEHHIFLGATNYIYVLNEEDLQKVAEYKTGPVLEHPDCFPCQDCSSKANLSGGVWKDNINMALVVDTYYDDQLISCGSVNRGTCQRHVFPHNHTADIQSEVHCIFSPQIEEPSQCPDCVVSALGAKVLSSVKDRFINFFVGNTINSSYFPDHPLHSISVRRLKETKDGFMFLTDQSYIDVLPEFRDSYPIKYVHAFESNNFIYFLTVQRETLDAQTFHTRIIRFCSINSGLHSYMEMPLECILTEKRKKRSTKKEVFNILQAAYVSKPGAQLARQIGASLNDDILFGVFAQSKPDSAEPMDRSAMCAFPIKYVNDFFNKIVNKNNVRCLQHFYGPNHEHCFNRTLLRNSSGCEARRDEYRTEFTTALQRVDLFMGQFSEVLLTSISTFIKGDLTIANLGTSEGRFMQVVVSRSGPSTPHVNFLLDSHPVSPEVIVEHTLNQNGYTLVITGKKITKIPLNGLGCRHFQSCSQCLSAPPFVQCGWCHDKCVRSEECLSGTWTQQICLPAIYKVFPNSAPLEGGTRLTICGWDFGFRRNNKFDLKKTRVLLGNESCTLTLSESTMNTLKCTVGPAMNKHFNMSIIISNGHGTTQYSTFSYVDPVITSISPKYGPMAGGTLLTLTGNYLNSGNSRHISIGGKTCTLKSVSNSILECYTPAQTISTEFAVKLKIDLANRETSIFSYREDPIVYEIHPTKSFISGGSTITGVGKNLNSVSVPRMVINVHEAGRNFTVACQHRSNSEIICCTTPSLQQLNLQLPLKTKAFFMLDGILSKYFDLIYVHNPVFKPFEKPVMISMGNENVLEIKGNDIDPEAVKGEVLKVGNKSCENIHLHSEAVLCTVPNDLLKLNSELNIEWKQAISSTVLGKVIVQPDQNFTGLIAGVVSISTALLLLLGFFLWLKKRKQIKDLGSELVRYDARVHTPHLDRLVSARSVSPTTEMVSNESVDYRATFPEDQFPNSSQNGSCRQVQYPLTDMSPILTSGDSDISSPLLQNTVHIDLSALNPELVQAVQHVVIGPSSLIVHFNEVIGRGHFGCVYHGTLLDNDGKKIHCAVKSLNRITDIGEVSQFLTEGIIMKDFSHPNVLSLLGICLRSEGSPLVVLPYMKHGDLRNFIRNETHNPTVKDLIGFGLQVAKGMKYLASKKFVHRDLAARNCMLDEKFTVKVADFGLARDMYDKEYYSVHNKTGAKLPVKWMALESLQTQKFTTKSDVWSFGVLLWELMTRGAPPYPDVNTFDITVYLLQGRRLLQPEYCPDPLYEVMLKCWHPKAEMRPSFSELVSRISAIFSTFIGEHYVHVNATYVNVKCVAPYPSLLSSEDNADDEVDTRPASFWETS
CSNK1D (human), sequence (P48730 whole entry, looked up): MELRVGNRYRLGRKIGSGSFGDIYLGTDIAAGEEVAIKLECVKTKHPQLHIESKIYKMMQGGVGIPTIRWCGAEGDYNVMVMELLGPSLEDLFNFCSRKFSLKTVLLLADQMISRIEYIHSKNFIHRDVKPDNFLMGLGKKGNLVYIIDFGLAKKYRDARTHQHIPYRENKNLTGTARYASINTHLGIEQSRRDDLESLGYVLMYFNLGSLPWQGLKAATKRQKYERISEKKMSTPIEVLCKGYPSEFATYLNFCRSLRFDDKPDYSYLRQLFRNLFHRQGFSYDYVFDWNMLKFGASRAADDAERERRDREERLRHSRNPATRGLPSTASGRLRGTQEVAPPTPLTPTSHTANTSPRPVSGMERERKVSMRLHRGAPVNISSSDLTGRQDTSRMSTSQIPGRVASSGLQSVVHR
LYN (human), sequence (P07948 whole entry, looked up): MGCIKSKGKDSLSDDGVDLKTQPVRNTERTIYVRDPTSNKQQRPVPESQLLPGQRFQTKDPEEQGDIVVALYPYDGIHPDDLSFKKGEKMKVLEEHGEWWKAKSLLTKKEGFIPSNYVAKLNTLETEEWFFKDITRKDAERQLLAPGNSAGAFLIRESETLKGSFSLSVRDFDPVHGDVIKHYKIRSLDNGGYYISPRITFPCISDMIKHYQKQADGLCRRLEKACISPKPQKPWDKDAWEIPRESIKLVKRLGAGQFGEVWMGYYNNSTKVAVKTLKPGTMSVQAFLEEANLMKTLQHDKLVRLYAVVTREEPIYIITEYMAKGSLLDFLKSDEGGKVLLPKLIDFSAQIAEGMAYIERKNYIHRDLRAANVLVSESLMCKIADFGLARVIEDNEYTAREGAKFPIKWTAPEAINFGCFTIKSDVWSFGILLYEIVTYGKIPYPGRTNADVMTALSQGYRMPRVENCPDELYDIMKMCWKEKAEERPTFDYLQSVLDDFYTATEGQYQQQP
DAPK3 (human), sequence (O43293 whole entry, looked up): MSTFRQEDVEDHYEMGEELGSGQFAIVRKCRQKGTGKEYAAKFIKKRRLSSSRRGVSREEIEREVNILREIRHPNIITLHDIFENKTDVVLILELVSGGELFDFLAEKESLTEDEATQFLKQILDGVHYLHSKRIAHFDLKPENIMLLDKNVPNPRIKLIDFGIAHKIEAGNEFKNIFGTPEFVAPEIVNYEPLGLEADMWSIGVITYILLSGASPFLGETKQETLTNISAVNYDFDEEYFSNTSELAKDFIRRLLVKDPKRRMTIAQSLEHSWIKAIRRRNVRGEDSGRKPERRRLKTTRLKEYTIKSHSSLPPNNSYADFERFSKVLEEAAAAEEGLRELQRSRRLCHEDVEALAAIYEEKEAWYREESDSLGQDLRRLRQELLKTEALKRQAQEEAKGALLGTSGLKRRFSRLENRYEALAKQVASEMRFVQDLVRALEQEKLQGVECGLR
DAPK2 (human), sequence (Q9UIK4 whole entry, looked up): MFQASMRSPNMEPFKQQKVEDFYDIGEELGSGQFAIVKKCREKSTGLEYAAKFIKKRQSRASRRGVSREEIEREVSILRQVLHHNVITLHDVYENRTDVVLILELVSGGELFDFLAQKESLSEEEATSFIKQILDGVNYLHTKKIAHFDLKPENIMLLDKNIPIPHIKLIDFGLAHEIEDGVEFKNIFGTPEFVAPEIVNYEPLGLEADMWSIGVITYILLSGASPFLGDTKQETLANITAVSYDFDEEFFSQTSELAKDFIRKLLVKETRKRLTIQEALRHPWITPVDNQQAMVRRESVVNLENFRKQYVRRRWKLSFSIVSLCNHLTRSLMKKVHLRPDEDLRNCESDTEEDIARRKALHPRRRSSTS
ACVRL1 (human), sequence (P37023 whole entry, looked up): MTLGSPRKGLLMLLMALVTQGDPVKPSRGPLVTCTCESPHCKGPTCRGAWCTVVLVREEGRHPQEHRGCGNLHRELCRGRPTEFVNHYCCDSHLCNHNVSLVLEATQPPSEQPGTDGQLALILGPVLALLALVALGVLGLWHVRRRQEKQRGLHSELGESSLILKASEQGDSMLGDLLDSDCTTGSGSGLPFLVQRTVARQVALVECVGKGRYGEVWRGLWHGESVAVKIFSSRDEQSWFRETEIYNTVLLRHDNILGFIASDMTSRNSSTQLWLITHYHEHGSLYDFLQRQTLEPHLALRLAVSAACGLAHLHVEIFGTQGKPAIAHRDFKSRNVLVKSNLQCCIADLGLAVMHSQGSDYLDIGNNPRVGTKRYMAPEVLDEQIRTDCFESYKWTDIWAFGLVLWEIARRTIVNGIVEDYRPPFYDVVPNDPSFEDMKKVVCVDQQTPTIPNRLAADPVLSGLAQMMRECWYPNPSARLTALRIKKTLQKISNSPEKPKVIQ

- kinase still bound, per cent of control (ACVRL1 (human)): 0%
- kinase still bound, per cent of control (ALK (human)): 0%
- kinase still bound, per cent of control (AURKB (human)): 0%
- kinase still bound, per cent of control (AXL (human)): 0%
- kinase still bound, per cent of control (BMX (human)): 1.4%
- kinase still bound, per cent of control (BRSK2 (human)): 0%
- kinase still bound, per cent of control (CAMKK1 (human)): 0.1%
- kinase still bound, per cent of control (CDK16 (human)): 0%
- kinase still bound, per cent of control (CDK2 (human)): 28.3%
- kinase still bound, per cent of control (CLK2 (human)): 0%
- kinase still bound, per cent of control (CSNK1A1L (human)): no effect (inactive)
- kinase still bound, per cent of control (CSNK1D (human)): no effect (inactive)
- kinase still bound, per cent of control (CSNK1E (human)): 2.4%
- kinase still bound, per cent of control (CSNK1G1 (human)): no effect (inactive)
- kinase still bound, per cent of control (DAPK2 (human)): 3.8%
- kinase still bound, per cent of control (DAPK3 (human)): 2.1%
- kinase still bound, per cent of control (EPHA2 (human)): 1.5%
- kinase still bound, per cent of control (EPHA3 (human)): 0%
- kinase still bound, per cent of control (EPHA8 (human)): 0.4%
- kinase still bound, per cent of control (EPHB1 (human)): 0%
- kinase still bound, per cent of control (FLT3 (human)): 0%
- kinase still bound, per cent of control (FRK (human)): 0.5%
- kinase still bound, per cent of control (FYN (human)): 0%
- kinase still bound, per cent of control (KDR (human)): 0%
- kinase still bound, per cent of control (LCK (human)): 0%
- kinase still bound, per cent of control (LYN (human)): 0.2%
- kinase still bound, per cent of control (MAPK8 (human)): 0%
- kinase still bound, per cent of control (MERTK (human)): 0%
- kinase still bound, per cent of control (MET (human)): 0.3%
- kinase still bound, per cent of control (NLK (human)): no effect (inactive)
- kinase still bound, per cent of control (PDGFRB (human)): 0%
- kinase still bound, per cent of control (PRKAA2 (human)): 0%
- kinase still bound, per cent of control (RAF1 (human)): no effect (inactive)
- kinase still bound, per cent of control (RET (human)): 0%
- kinase still bound, per cent of control (SRC (human)): 0%
- kinase still bound, per cent of control (SRPK1 (human)): 0%
- kinase still bound, per cent of control (STK24 (human)): 0.1%
- kinase still bound, per cent of control (STK3 (human)): 0%
- kinase still bound, per cent of control (SYK (human)): 1.3%
- kinase still bound, per cent of control (TEK (human)): 0.4%
- kinase still bound, per cent of control (YES1 (human)): 0%
SMILES: CCS(=O)(=O)Nc1ccc2c(c1)[C@H](/C(=N/c1ccc(CN3CCCCC3)cc1)c1ccccc1)C(=O)N2

- kinase still bound, per cent of control (ACVRL1 (human)): no effect (inactive)
- kinase still bound, per cent of control (ALK (human)): no effect (inactive)
- kinase still bound, per cent of control (AURKB (human)): no effect (inactive)
- kinase still bound, per cent of control (AXL (human)): no effect (inactive)
- kinase still bound, per cent of control (BMX (human)): no effect (inactive)
- kinase still bound, per cent of control (BRSK2 (human)): no effect (inactive)
- kinase still bound, per cent of control (CAMKK1 (human)): no effect (inactive)
- kinase still bound, per cent of control (CDK16 (human)): no effect (inactive)
- kinase still bound, per cent of control (CDK2 (human)): no effect (inactive)
- kinase still bound, per cent of control (CLK2 (human)): no effect (inactive)
- kinase still bound, per cent of control (CSNK1D (human)): 0%
- kinase still bound, per cent of control (CSNK1E (human)): 0%
- kinase still bound, per cent of control (CSNK1G1 (human)): no effect (inactive)
- kinase still bound, per cent of control (DAPK2 (human)): no effect (inactive)
- kinase still bound, per cent of control (DAPK3 (human)): no effect (inactive)
- kinase still bound, per cent of control (EPHA2 (human)): no effect (inactive)
- kinase still bound, per cent of control (EPHA3 (human)): no effect (inactive)
- kinase still bound, per cent of control (EPHA8 (human)): no effect (inactive)
- kinase still bound, per cent of control (EPHB1 (human)): no effect (inactive)
- kinase still bound, per cent of control (FLT3 (human)): no effect (inactive)
- kinase still bound, per cent of control (FRK (human)): no effect (inactive)
- kinase still bound, per cent of control (FYN (human)): no effect (inactive)
- kinase still bound, per cent of control (KDR (human)): no effect (inactive)
- kinase still bound, per cent of control (LCK (human)): no effect (inactive)
- kinase still bound, per cent of control (LYN (human)): no effect (inactive)
- kinase still bound, per cent of control (MAPK8 (human)): no effect (inactive)
- kinase still bound, per cent of control (MERTK (human)): no effect (inactive)
- kinase still bound, per cent of control (MET (human)): no effect (inactive)
- kinase still bound, per cent of control (NLK (human)): no effect (inactive)
- kinase still bound, per cent of control (PDGFRB (human)): no effect (inactive)
- kinase still bound, per cent of control (PRKAA2 (human)): no effect (inactive)
- kinase still bound, per cent of control (RAF1 (human)): no effect (inactive)
- kinase still bound, per cent of control (RET (human)): no effect (inactive)
- kinase still bound, per cent of control (SRC (human)): no effect (inactive)
- kinase still bound, per cent of control (SRPK1 (human)): no effect (inactive)
- kinase still bound, per cent of control (STK24 (human)): no effect (inactive)
- kinase still bound, per cent of control (STK3 (human)): no effect (inactive)
- kinase still bound, per cent of control (SYK (human)): no effect (inactive)
- kinase still bound, per cent of control (TEK (human)): no effect (inactive)
- kinase still bound, per cent of control (YES1 (human)): no effect (inactive)
SMILES: c1ccc(-c2n[nH]cc2-c2ccnc3ccccc23)nc1
